Source: patent US11040052B2, “Methods and pharmaceutical compositions for modulating autophagy in a subject in need thereof” (INSERM (INSTITUT NATIONAL DE LA SANTE ET DE LA RECHERCHE …, priority 2013, dated 2021)
Entries after “also recorded” stand apart in the source; their conditions may differ.

Columns and labels:
[1] = test system: TAC-induced cardiac autophagy and remodeling; assay: In vivo model of pressure overload (thoracic aortic constriction, TAC); design: species or system mice; details: daily intra-peritoneal 300 mg/kg
Protocol: Immuno-histochemical staining of heart tissue sections was performed using the Novolink Kit (Menarini Diagnostics, RE7140-K), as previously described (Ladoire et al., 2012). Briefly, […] formalin-fixed, paraffin-embedded tissue sections were deparaffinized with 3 successive passages through xylene, and rehydrated through decreasing concentrations (100%, 95%, 80%, 70% and 50%) of ethanol. Antigen retrieval was performed by heating slides for 30 min in pH 6.0 citrate buffer at 95° C. Slides were then allowed to cool at room temperature for 45 min, mounted on Shandon Sequenza coverplates (Thermo Fisher Scientific, 72-199-50) in distilled water, and then washed twice for 5 min with 0.1% Tween 20 (v/v in PBS). Thereafter, sections were incubated for 5 min with the Peroxidase Block reagent, and subsequently washed twice for 5 min with 0.1% Tween 20 (v/v in PBS). […] Two-dimensional echocardiography was performed prior to surgery and 1 week post-surgery in non-sedated mice to quantify functional parameters using a Vevo 2100 high-resolution imaging system (Visual Sonics). […] Quantitative analysis was obtained through measurement of an average of 900 cells in each section from two (sham) or three (TAC) animals.

[2] = test system: intracellular amino acid levels; assay: Intracellular amino acid levels by mass spectrometry; assay type: cell-based; details: starved cells
Protocol: Profiling of intracellular metabolites was performed on a RRLC 1260 system (Agilent Technologies) coupled to a QTOF 6520 (Agilent) equipped with an electrospray source operating in positive ion and full scan mode from 100 to 1000 Da. The gas temperature was set at 350° C. with a gas flow of 10 L·min^1. The capillary voltage was set at 4.0 kV, and the fragmentor at 150 V. Two reference masses were used to maintain the mass accuracy during analysis: 121.050873 (C5H4N4) and 922.009798 (C18H18O6N3P3F24). Five μL of sample were injected on a 150 mm×2.1 mm 3.5 μm SB Aq column (Agilent) with a pre-column 30 mm×2.1 mm 3.5 μm Eclipse plus (Agilent). The gradient mobile phase consisted of water with 10 mmol/L of ammonium acetate and 0.01% of acetic acid (A) and acetonitrile (B). Initial composition of mobile phase was 2% of B, followed by an increase to 95% of B in 10 min. The flow rate was set to 0.3 mL·min^−1.

KRas-induced lung cancer = KRas-induced lung cancer (AdCre inhalation); assay type: in vivo, mice
Protocol: Atg5fl/fl mice were kindly given by Dr Noboru Mizushima. LSL-K-rasG12D;Atg5fl/fl mice were obtained as described in^7. In all experiments, only littermate mice were used as controls. All mice were maintained according to the ethical animal licence protocol complying with the Austrian and European legislation. All experiments were approved by Bundesministerium for Wissenschaft and Forschung, Austria (BMWF-66.015/0013-II/3b/2012).
Inhalation of 6-8-week-old mice with AdCre viruses was performed as previously reported (REF). In brief, experimental animals were anaesthetized with 10% Ketasol/Xylasol and placed on a heated pad. An AdCre-CaCl2 precipitate was produced by mixing […], 2.5 ml AdCre (1010 p.f.u. ml_1; University of Iowa, Gene Transfer Vector Core Iowa, USA) and 0.6 ml CaCl2 (1 M) for each mouse and incubated for 20 min at room temperature. One week after AdCre inhalation, mice were administered with 900 mg/kg HC per body weight in drinking water for 5 weeks and tumors lesions were evaluated by immunohistochemistry.
For KRas-induced lung cancers hisology, […] sections from at least three different planes were cut and stained with haematoxylin and eosin. Sections were scanned using a Mirax slide scanner and lung/tumour areas were automatically scored by an algorithm programmed and executed using the Definiens software suite and visually analyzed in a double blinded fashion. Immunhistochemical staining was performed by automatic staining machine (Leica Bond3) or manually processed. Sections were dehydrated and antigenic epitopes were retrieved using a 10-mM citrate buffer and microwaving for 10 min. Specimen were then incubated with rabbit polyclonal anti-Foxp3 (eBioscience, 13-5773, :100), anti-CD3E (Santa Cruz, 101442, 1:100). Primary Ab staining was detected by peroxidase conjugated anti-rabbit IgG (DAKO, P0448, 1:500). Positive cells were counted on 20 randomly chosen tumour areas at _400 magnifications in a double blinded fashion. Quantitative analysis was performed using HistoQuest software (TissueGnostics GmbH, Vienna, Austria; http://www.tissuegnostics.com).

MCA205 cells = assay: Labeling of vesicular ATP in vitro (quinacrine/PI); assay type: cell-based, murine; details: compared to MTX alone
Protocol: MCA205 cells were loaded with […] quinacrine in Krebs-Ringer solution (125 mM NaCl, 5 mM KCl, 1 mM MgSO4, 0.7 mM KH2PO4, 2 mM CaCl2), 6 mM glucose and 25 mM HEPES buffer, pH 7.4) for 30 min at 37 1C. Thereafter, cells were co-stained for 10 min with […] propidium iodide (PI) and […] Hoechst 33342 (both from Molecular Probes-Life Technologies), rinsed with Krebs-Ringer solution and analyzed by automated fluorescence microscopy.

Compound	TAC-induced cardiac autophagy [1]	TAC-induced pathological remodeling / heart failure features [1]	intracellular amino acid levels [2]	autophagy (LC3 dots) in KRas induced lung adenocarcinomas (KRas-induced lung cancer; Atg5fl/+ tumors)	Foxp3+ regulatory T cells in tumor bed (KRas-induced lung cancer; KRas;Atg5fl/+ mice)	number and size of tumor lesions (KRas-induced lung cancer; KRas;Atg5fl/+ mice, 5 weeks in drinking water)	ratio between CD8+ and Foxp3+ lymphocytes (KRas-induced lung cancer; KRas;Atg5fl/+ tumors)	lung cancers in mice without adaptive immunity (KRas-induced lung cancer; Rag2−/− mice, data not shown)	ATP release in vitro, combined with MTX (MCA205 cells)
COC(=O)CCC(=O)C(=O)OC [DMKG, dimethyl-α-ketoglutarate]	decreased cardiac autophagy induced by thoracic aortic constriction (TAC); also recorded: inhibited the maladaptive accumulation of autophagosomes	suppressed TAC-induced pathological remodeling; also recorded: suppressed multiple features of TAC-induced heart failure	failed to enhance intracellular amino acid levels						
O=C(O)CC(O)(C(=O)O)C(O)C(=O)O (stereo not shown) [HC, hydroxycitrate]				induced autophagy in KRas induced lung adenocarcinomas	reduces CD3+ FOXP3 Regulatory T cells in tumor bed; also recorded: reduced the density of tumor infiltration by lymphocytes expressing the Treg marker Foxp3	reduces tumor size and lesions; also recorded: reduced the number and size of Ad-Cre-induced tumor lesions	improvement in the ratio between CD8^+ and Foxp3^+ lymphocytes	had no positive effect on lung cancers evolving in Rag2^−− mice	marked increase in ATP release; also recorded: particularly efficient in inducing the autophagy-dependent release of ATP
CC(C)CC(=O)C(=O)O [KIC, ketoisocaproic acid]			barely increased intracellular leucine levels						
